Consider 5 molecules from paper PMC2932872 (Journal of agricultural and food chemistry, 2010).

What is called IC50 is the concentration that inhibits the measured activity by half.

Values joined by “and” are separate entries in the source; they are usually repeats but may differ in a detail not shown here. Equal values may be shown once.

Series [1] relates to SH-SY5Y cells. Description: MTT viability assay. The note with it: for cytotoxicity (in words): 50 μM, 48 and 72 h. It is filed as cell-based, human. For orientation: Formazan colour is commonly taken as a measure of viable cells.
A short description of series [2]: Stability of ^14C-MPS and ^14C-MPO in culture media. The series is classed as physicochemical. The note with it: 1 μM; for OP recovered from the media unchanged: 72 h incubation in media, 37 °C.
In series [3] the test system is SH-SY5Y cells. Description: Preliminary uptake of ^14C-MPS and ^14C-MPO in SH-SY5Y cells. The series is classed as in vitro ADME, human. The note with it: 1 μM exposure; for share of total applied radioactivity that entered the cells: at the most.
The test system of series [4] is SH-SY5Y cells. Description: Fate in uptake experiments: OP and degradation products in cell cytosol. The series is classed as in vitro ADME, human. The note with it: for uptake rate constant / amount of parent OP in the cytosol / total uptake (OP and degradation products): 1 μM exposure; for total uptake (OP and degradation products): 48 h (maximum); for OP associated with the membrane fraction (in words): uptake experiments; for Percentage of MPS in cell cytosol (per 10^6 cells) / Relative ratio of MPS in cell cytosol: 1 μM of OP.

Series [5] is described as follows: Fate in uptake experiments: OP and degradation products in culture media. The series is classed as in vitro ADME. The note with it: cells exposed to 1 μM of OP.
For series [6] the following is noted: cited from earlier work.
In series [7] the target is acetylcholinesterase (AChE, EC 3.1.1.7). The note with it: cited from earlier work.

On to `COP(=O)(OC)Oc1ccc([N+](=O)[O-])cc1` [MPO, methyl paraoxon], for which the “cytotoxicity (in words)” value in the series on SH-SY5Y cells [1] was “Some cytotoxicity”. The cytotoxicity entry in the series on SH-SY5Y cells [1] (100 μM, all time points (24, 48, 72 h)) was “at least 60%”. The “OP recovered from the media unchanged” value in series [2] is reported as “more than 50%”. Moreover, in the series on SH-SY5Y cells [3], the “share of total applied radioactivity that entered the cells” value was no more than 5%. The “maximum level of uptake (total amount of OP inside cells)” value in the series on SH-SY5Y cells [3] (maximum at 48 h) stood at 46 nM. Further, in the series on SH-SY5Y cells [4], the uptake rate constant worked out at 0.025 h⁻¹; the “total uptake (OP and degradation products)” value is recorded as 1.76 nM/10^6 cells; the “OP associated with the membrane fraction (in words)” value was “negligible amount”. Moreover, the “amount of parent OP in the cytosol” value in the series on SH-SY5Y cells [4] (48 h) worked out at 0.37 nM/10^6 cells.

As to `COP(=S)(OC)Oc1ccc([N+](=O)[O-])cc1` [MPS, OO, -dimethyl O-4-nitrophenyl phosphorothioate], the “cytotoxicity (in words)” value with SH-SY5Y cells [1] is “Some cytotoxicity”. The “cell viability (in words)” value in the series with SH-SY5Y cells [1] (100 μM, 24 h) is on record as “no significant decrease in viability”. The cytotoxicity in the series with SH-SY5Y cells [1] (100 μM, 24 h) was 4–5% and 4%; with SH-SY5Y cells [1] (100 μM, 48 h), ~ 60% and 60%; in the series on SH-SY5Y cells [1] (100 μM, 72 h), 90%. Moreover, the “OP recovered from the media unchanged” value in series [2] is reported as “more than 50%”. Moreover, the “^14C-MPO formed by oxidation in media” value in series [2] (after 4 days in media) is recorded as “less than 1%”. The “share of total applied radioactivity that entered the cells” value in the series with SH-SY5Y cells [3] was no more than 5%. For the same molecule, in the series with SH-SY5Y cells [3] (maximum at 24 h), the “maximum level of uptake (total amount of OP inside cells)” value came to 13 nM. In addition, the uptake rate constant in the series with SH-SY5Y cells [4] was determined as 0.054 h⁻¹. For the same molecule, the “amount of parent OP in the cytosol” value in the series with SH-SY5Y cells [4] (48 h) was found to be 0.54 nM/10^6 cells. Besides, in the series on SH-SY5Y cells [4], the “total uptake (OP and degradation products)” value was determined as 1.19 nM/10^6 cells. Moreover, the “Percentage of MPS in cell cytosol (per 10^6 cells)” value came to 0.036 ± 0.001% in the series with SH-SY5Y cells [4] (24 h), 0.054 ± 0.006% in the series with SH-SY5Y cells [4] (48 h) and 0.043 ± 0.004% in the series on SH-SY5Y cells [4] (72 h). Further, the “Relative ratio of MPS in cell cytosol” value was 45.3 ± 1.5 in the series on SH-SY5Y cells [4] (24 h); 46 and 45.8 ± 2.0 in the series on SH-SY5Y cells [4] (48 h, listed as 14C-MPS); 43.5 ± 1.8 with SH-SY5Y cells [4] (72 h). Besides, the “OP associated with the membrane fraction (in words)” value with SH-SY5Y cells [4] is “negligible amount”. The “Relative ratio of MPS in culture media” value in series [5] (24 h) is 74.3 ± 1.0; in series [5] (48 h), 63.9 ± 0.1; in series [5] (72 h), 52.9 ± 0.8. For the same molecule, the “Log Po/w” value in series [6] is on record as 3.0.

As for `CCOP(=S)(OCC)Oc1ccc([N+](=O)[O-])cc1` [Parathion], the “IC50 (cholinesterase inhibition)” value in series [7] is on record as 10^−4 to 10^−5 M.

Consider `CCOP(=O)(OCC)Oc1ccc([N+](=O)[O-])cc1` [ethyl paraoxon], for which, in series [6], the “Log Po/w” value is on record as 1.6.

For the molecule `CCOP(=O)(OCC)Oc1ccc([N+](=O)[O-])cc1` [paraoxon], in series [7] (read-out: IC50 (inhibition of AChE)), the IC50 was 0.01 µM.
